The values that follow come from patent publication US8129396B2, “2-[1H-benzimidazol-2(3H)-ylidene]-2-(pyrimidin-2-yl)acetamides and 2-[benzothiazol-2(3H)-ylidene]-2-(pyrimidin-2-yl)acetamides as kinase inhibitors” (Telik, Inc., priority 2008, dated 2012).

One test concerns the target T1, Aurora A kinase (Homo sapiens, UniProt O14965).
T1 construct: purchased Upstate Biotech
T1 sequence (O14965 1-403): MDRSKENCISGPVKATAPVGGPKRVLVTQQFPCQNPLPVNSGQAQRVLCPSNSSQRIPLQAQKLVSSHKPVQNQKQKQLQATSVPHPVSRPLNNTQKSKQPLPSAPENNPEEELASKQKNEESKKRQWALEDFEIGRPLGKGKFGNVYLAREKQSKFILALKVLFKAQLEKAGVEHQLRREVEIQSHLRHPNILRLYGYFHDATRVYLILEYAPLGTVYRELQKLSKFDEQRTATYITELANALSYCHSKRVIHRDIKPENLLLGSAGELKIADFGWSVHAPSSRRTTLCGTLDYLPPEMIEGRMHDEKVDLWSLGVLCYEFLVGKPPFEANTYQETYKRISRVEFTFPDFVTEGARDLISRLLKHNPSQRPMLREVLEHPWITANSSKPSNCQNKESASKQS
The test can be described thus: Aurora A kinase assay (IMAP fluorescence polarization). In kind it is biochemical. The following applies: 10 μM ATP; rounded to 1 significant figure; read-out: Aur-A IC50. The text has this: (§1) The cell lines HL60 (human promyelocytic leukemia) and HCT116 (human colon carcinoma) were obtained from the American Type Culture Collection, Manassas, Va., U.S.A., and HUVEC-2 (human umbilical vein endothelial cells) from BD Biosciences, Bedford, Mass., U.S.A. Aurora A kinase was obtained from Upstate Biotech, Billerica, Mass., U.S.A.; Aurora B kinase from BPS Bioscience, San Diego, Calif., U.S.A.; and VEGFR2 kinase from Cell Signaling Technology, Danvers, Mass., U.S.A. The IMAP FP Screening Express kit was obtained from Molecular Devices, Sunnyvale, Calif., U.S.A.; the CellTiter-Glo assay kit from Promega Corporation, Madison, Wis., U.S.A.; and the Cellular DNA Cytometric Analysis Reagent Kit and BrdU labeling and detection kit from Roche Diagnostics Corporation, Indianapolis, Ind., U.S.A. All products were used in accordance with manufacturer's directions. Kinase inhibition assays and the histone phosphorylation (p-H3) assay were conducted in duplicate, and the cytotoxicity and HUVEC proliferation assays were conducted in triplicate, in each case with solvent control.
Aurora A kinase assay: the test compounds were diluted in dimethylsulfoxide (DMSO, eight concentrations with serial 3-fold dilutions) and incubated (final DMSO concentration 2.5%) with Aurora A kinase at room temperature for 5 min in kinase reaction buffer with 1 mM dithiothreitol (IMAP FP Screening Express). The kinase reaction was initiated by adding 100 nM fluorescein labeled PKAtide and 10 μM adenosine triphosphate (ATP), and allowed to continue for 45 min at room temperature, after which it was stopped by adding binding reagent (1:400 dilution in binding buffer A). After 30 min of room temperature incubation with shaking, the fluorescence polarization was measured on a LJL plate reader. Aurora B kinase assay: performed as for the Aurora A kinase assay, but using Aurora B kinase instead of Aurora A kinase.

In a further test the target is T2, Aurora B kinase (Homo sapiens, UniProt Q96GD4).
T2 construct: purchased BPS Bioscience
The experiment in a line: Aurora B kinase assay (IMAP fluorescence polarization). In kind it is biochemical. The following applies: 10 μM ATP; rounded to 1 significant figure; read-out: Aur-B IC50.
Source text: as §1
The kinase reaction was initiated by adding 100 nM fluorescein labeled PKAtide and 10 μM adenosine triphosphate (ATP), and allowed to continue for 45 min at room temperature, after which it was stopped by adding binding reagent (1:400 dilution in binding buffer A). After 30 min of room temperature incubation with shaking, the fluorescence polarization was measured on a LJL plate reader. Aurora B kinase assay: performed as for the Aurora A kinase assay, but using Aurora B kinase instead of Aurora A kinase.

For another test, the target named is T3, VEGFR2 kinase (Homo sapiens, UniProt P35968).
T3 construct: purchased Cell Signaling Technology
The experiment in a line: VEGFR2 kinase assay. The test is classed as biochemical. The conditions noted are these: 6 μM ATP, 1 mM MnCl2; rounded to 1 significant figure.
Source text: as §1
This assay was performed as for the Aurora A kinase assay, using VEGFR2 kinase, CSKtide as the substrate with 6 μM ATP and 1 mM MnCl2, a kinase reaction time of 1 hr, and dilution of the binding reagent 1:1200 in binding buffer A/binding buffer B (1:1).

Another test concerns p-H3 in HCT116 cells. The test can be described thus: Histone phosphorylation (p-H3) assay. In kind it is cell-based. The following applies: Homo sapiens, HCT-116; HCT116 cells, 4 hr incubation; read-out: p-H3 IC50.
Source text: as §1
Log phase HCT116 cells were seeded at 2.5×10^4 cells/well in a 96-well plate and allowed to attach overnight. The test compounds were diluted in DMSO (8 concentrations with serial 3-fold dilutions) and added to the cells (0.5% DMSO final concentration), and the cells incubated for 4 hr. The cells were then washed three times with cold phosphate-buffered saline (PBS), and lysis buffer was added. After 30 min shaking at 4° C. and centrifugation, the supernatants were transferred to a nitrocellulose membrane by a “dot-blot” apparatus. After washing the wells, the membrane was processed for Western blot. Detection of p-H3 and β-actin was performed on the same membrane with primary rabbit anti-p-H3 and mouse anti-β-actin antibodies followed by secondary goat anti-rabbit IRDye800 and goat anti-mouse AlexaFluor 680 antibodies. The membranes were scanned on an Odyssey scanner.

The test system of test [1] is HCT116 (human colon carcinoma) cells. The test can be described thus: HCT116 cytotoxicity assay (CellTiter-Glo). The test is classed as cell-based. The following applies: HCT-116, 72 h, cytotoxicity, three days culture, read-out: HCT116 IC50.
Source text: as §1
Log-phase cells were trypsinized, collected by centrifugation, and resuspended in a small volume of fresh medium, and the density of viable cells was determined following Trypan Blue staining. Cells were diluted in fresh media (1×10^4 cells/mL for HL60 and 4×10^4 cells/mL for HCT116 cells), the test compounds (concentrations between 0.1 μM and 200 μM, dissolved in DMSO, 50 μL) added immediately after dilution to achieve a final DMSO concentration of 0.5%, then the suspensions added at 150 μL/well to 96-well plates, and incubated overnight to allow attachment in the case of adherent cells. The cells were cultured for three days (about three doubling times). The cells were then collected by centrifugation, and 100 μL of the culture supernatant was replaced by the CellTiter-Glo reagent. After incubation for 15 minutes at room temperature, the plate was read with a luminometer.

In test [2] the test system is HUVEC-2 (human umbilical vein endothelial cells). The test can be described thus: HUVEC VEGF-dependent proliferation assay (BrdU). The test is classed as cell-based. The conditions noted are these: VEGF (25 ng/mL)-dependent proliferation, read-out: HUVEC IC50.
Source text: as §1
HUVEC-2 cells were seeded at 10^4 cells/well in a 96-well plate coated with 0.1% gelatin in complete medium. […] The compounds were serially diluted in DMSO, and added to the cells at 0.5% DMSO final concentration. After 2 hr, VEGF (25 ng/mL) was added; and after a further day, 5-bromo-2-deoxyuridine (BrdU, 10 μM) was added to label proliferating cells, and the cells incubated for another day. The plates were then processed using the Roche BrdU labeling and detection kit, and the VEGF-dependent antiproliferative activity of the compounds determined.

T3 sequence (P35968 20-1356): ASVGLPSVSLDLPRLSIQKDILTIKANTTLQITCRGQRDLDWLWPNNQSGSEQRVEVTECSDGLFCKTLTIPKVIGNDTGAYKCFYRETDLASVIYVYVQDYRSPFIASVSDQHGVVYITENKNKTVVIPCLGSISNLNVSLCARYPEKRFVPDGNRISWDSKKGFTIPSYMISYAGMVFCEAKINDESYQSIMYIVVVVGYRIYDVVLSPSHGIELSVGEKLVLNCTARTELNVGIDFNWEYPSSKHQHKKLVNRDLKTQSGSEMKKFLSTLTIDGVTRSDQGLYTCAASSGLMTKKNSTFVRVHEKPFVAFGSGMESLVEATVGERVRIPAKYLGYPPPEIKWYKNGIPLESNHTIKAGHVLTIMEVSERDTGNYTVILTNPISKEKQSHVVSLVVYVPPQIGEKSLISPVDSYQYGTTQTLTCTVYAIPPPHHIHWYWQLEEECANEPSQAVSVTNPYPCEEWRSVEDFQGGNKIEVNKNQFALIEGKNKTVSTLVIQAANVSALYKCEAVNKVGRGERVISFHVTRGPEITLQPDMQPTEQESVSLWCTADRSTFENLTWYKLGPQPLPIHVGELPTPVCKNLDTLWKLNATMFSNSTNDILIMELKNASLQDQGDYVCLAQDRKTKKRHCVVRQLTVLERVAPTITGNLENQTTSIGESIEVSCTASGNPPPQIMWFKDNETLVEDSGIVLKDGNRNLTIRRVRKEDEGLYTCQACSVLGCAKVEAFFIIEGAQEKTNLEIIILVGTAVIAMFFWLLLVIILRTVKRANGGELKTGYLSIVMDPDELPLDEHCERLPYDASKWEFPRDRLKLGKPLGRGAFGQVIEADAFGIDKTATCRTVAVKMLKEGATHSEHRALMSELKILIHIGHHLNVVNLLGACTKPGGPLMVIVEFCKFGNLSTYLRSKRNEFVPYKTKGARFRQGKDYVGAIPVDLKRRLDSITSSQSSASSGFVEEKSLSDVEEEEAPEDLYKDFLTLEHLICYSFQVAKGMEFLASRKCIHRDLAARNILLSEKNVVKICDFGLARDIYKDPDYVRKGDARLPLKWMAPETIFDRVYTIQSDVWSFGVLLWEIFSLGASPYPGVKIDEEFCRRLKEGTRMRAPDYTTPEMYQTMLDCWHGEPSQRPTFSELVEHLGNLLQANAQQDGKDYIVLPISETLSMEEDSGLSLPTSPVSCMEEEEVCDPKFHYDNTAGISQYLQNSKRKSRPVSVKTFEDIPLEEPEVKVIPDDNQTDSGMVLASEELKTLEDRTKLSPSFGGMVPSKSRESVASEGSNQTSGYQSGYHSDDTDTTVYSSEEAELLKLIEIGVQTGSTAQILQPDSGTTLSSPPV
T2 sequence (Q96GD4 whole entry): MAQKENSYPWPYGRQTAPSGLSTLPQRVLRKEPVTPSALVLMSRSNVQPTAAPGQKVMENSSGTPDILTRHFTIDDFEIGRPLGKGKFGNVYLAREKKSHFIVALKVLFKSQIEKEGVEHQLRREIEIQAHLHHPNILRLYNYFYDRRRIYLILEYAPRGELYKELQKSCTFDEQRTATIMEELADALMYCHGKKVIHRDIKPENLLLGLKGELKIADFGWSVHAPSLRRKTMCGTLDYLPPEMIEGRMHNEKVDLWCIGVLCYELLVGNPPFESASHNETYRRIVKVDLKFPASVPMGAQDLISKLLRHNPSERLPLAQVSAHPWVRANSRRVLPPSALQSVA

On to `NC(=O)/C(=C1\Nc2ccc(OCCN3CCOCC3)cc2S1)c1nccc(C(F)(F)F)n1` [Compound 111A], for which the IC50 was determined as 20 nM at Aurora A kinase; 9 nM at Aurora B kinase; 100 nM at VEGFR2 kinase; 400 nM in the test with p-H3 in HCT116 cells; 2000 nM in test [1]; 300 nM in test [2].

In the case of `NC(=O)/C(=C1\Nc2ccc(N3CCC(N4CCOCC4)CC3)cc2S1)c1nccc(C(F)(F)F)n1` [Compound 122A], the IC50 on Aurora A kinase was 20 nM; at Aurora B kinase it was 9 nM; against VEGFR2 kinase it was 20 nM; in the test on p-H3 in HCT116 cells, 400 nM; in test [1] it was 4000 nM; in test [2], 7000 nM.

For the molecule `NC(=O)/C(=C1\Nc2ccc(C(=O)O)cc2N1)c1nccc(C(F)(F)F)n1` [Compound 28A], the IC50 at Aurora A kinase came out at 5 nM; on Aurora B kinase, 5 nM; against VEGFR2 kinase, 10 nM; with p-H3 in HCT116 cells, 4000 nM; in test [1] it was 4000 nM; in test [2], 40 nM.

`NC(=O)C(=C1Nc2ccccc2N1)c1ncc(C(=O)NCCN2CCOCC2)c(C(F)(F)F)n1` [Compound 135A]: the IC50 is 30 nM at Aurora A kinase; 20 nM at Aurora B kinase; 100 nM against VEGFR2 kinase; 500 nM in the test with p-H3 in HCT116 cells; 4000 nM in test [1]; 600 nM in test [2].

In the case of `CN1CCN(C(=O)c2ccc3c(c2)N/C(=C(/C(N)=O)c2nccc(C(F)(F)F)n2)N3)CC1` [Compound 58A], the IC50 was determined as 9 nM at Aurora A kinase; 5 nM on Aurora B kinase; 9 nM on VEGFR2 kinase; 500 nM in the test with p-H3 in HCT116 cells; 400 nM in test [1]; 60 nM in test [2].

Regarding `NC(=O)/C(=C1\Nc2ccc(C(=O)Nc3ccncc3)cc2N1)c1nccc(C(F)(F)F)n1` [Compound 44A], the 50% inhibitory concentration (IC50) stood at 10 nM on Aurora A kinase; 10 nM at Aurora B kinase; 10 nM at VEGFR2 kinase; 200 nM in the test with p-H3 in HCT116 cells; 200 nM in test [1]; 80 nM in test [2].

As for `NC(=O)/C(=C1\Nc2ccc(S(=O)(=O)NCCN3CCOCC3)cc2S1)c1nccc(C(F)(F)F)n1` [Compound 128A], the IC50 came to 10 nM on Aurora A kinase; 20 nM at Aurora B kinase; 60 nM against VEGFR2 kinase; 600 nM with p-H3 in HCT116 cells; 900 nM in test [1]; 60 nM in test [2].

Regarding `CN(CCN1CCCCC1)c1ccc2c(c1)S/C(=C(/C(N)=O)c1nccc(C(F)(F)F)n1)N2` [Compound 125A], the IC50 on Aurora A kinase amounted to 30 nM; at Aurora B kinase, 10 nM; against VEGFR2 kinase, 20 nM; in the test with p-H3 in HCT116 cells, 200 nM; in test [1] it was 3000 nM; in test [2], 600 nM.

For the molecule `NC(=O)/C(=C1\Nc2ccccc2S1)c1ncc(C(=O)NCCN2CCOCC2)c(C(F)(F)F)n1` [Compound 134A], the IC50 at Aurora A kinase was determined as 50 nM; at Aurora B kinase, 10 nM; on VEGFR2 kinase it was 80 nM; in the test with p-H3 in HCT116 cells, 400 nM; in test [1], 4000 nM; in test [2], 600 nM.

For `CN1CCCCC1C(=O)Nc1ccc2c(c1)N/C(=C(/C(N)=O)c1nccc(C(F)(F)F)n1)N2` (stereo not shown) [Compound 82A], the IC50 at Aurora A kinase was determined as 8 nM; on Aurora B kinase, 7 nM; against VEGFR2 kinase it was 10 nM; with p-H3 in HCT116 cells, 400 nM; in test [1], 80 nM; in test [2], 30 nM.

Regarding `CN1CCN(CCC(=O)Nc2ccc3c(c2)N/C(=C(/C(N)=O)c2nccc(C(F)(F)F)n2)N3)CC1` [Compound 83A], the IC50 came to 6 nM at Aurora A kinase; 10 nM on Aurora B kinase; 60 nM on VEGFR2 kinase; 200 nM in the test with p-H3 in HCT116 cells; 200 nM in test [1]; 200 nM in test [2].

In the case of `NC(=O)/C(=C1\Nc2ccc(C(=O)N3CC[C@@H](N)C3)cc2N1)c1nccc(C(F)(F)F)n1` [Compound 68A], the IC50 at Aurora A kinase was found to be 10 nM; at Aurora B kinase, 10 nM; at VEGFR2 kinase, 3 nM; in the test on p-H3 in HCT116 cells, 60 nM; in test [1], 100 nM; in test [2], 60 nM.

Take `NC(=O)/C(=C1\Nc2ccc(N3CCC(N)C3)cc2S1)c1nccc(C(F)(F)F)n1` (stereo not shown) [Compound 123A]: the IC50 was determined as 100 nM at Aurora A kinase; 40 nM at Aurora B kinase; 90 nM on VEGFR2 kinase; 2000 nM in the test on p-H3 in HCT116 cells; 4000 nM in test [1].

As to `NC(=O)/C(=C1\Nc2ccc(NCCN3CCOCC3)cc2S1)c1nccc(C(F)(F)F)n1` [Compound 124A], the concentration for half-maximal inhibition (IC50) on Aurora A kinase was 30 nM; on Aurora B kinase, 30 nM; against VEGFR2 kinase it was 100 nM; in test [1] it was more than 20000 nM; in test [2] it was 3000 nM.

For `NCCCNC(=O)c1ccc2c(c1)N/C(=C(/C(N)=O)c1nccc(C(F)(F)F)n1)N2` [Compound 64A], the IC50 on Aurora A kinase is 50 nM; at Aurora B kinase it was 20 nM; against VEGFR2 kinase, 10 nM; with p-H3 in HCT116 cells, 900 nM; in test [1], 2000 nM.

With `COC(=O)c1cnc(C(C(N)=O)=C2Nc3ccccc3N2)nc1C(F)(F)F` [Compound 4A], the IC50 is 4 nM on Aurora A kinase; 10 nM at Aurora B kinase; 30 nM on VEGFR2 kinase; more than 40000 nM with p-H3 in HCT116 cells; 2000 nM in test [1].

Take `COC(=O)c1cnc(/C(C(N)=O)=C2/Nc3ccccc3S2)nc1C(F)(F)F` [Compound 3A]: the IC50 on Aurora A kinase is 20 nM; on Aurora B kinase, 10 nM; at VEGFR2 kinase, 90 nM; with p-H3 in HCT116 cells it was 20000 nM; in test [1], 3000 nM.
